Biological target: PDE-5 (UniProt O76074)
Assay: In vitro PDE inhibitory activity against PDE5 (batch method or scintillation proximity assay)
Format: biochemical, human
Details: representative compounds, read-out: IC50

SMILES	IC50
CCOCCn1nc(-c2nc(=O)o[nH]2)c2nc(N(C)CC)nc(Nc3ccc(F)c(C)c3)c21 [Example 77]	0.162 nM
CO[C@@H](C)Cn1nc(C(=O)O)c2nc(N(C)C(C)C)nc(Nc3cc(C)ccn3)c21 [Example 135, 5-[Isopropyl(methyl)amino]-1-[(2S)-2-methoxypropyl]-7-[(4-methylpyridin-2-yl)amino]-1H-pyrazolo[4,3-d]pyrimidine-3-carboxylic acid]	7.7 nM
CCN(C)c1nc(Nc2cc(C)ccn2)c2c(n1)c(C(=O)NS(C)(=O)=O)nn2CCOCC(F)(F)F [Example 178, 5-[Ethyl(methyl)amino]-7-[(4-methylpyridin-2-yl)amino]-N-(methylsulfonyl)-1-[2-(2,2,2-trifluoroethoxy)ethyl]-1H-pyrazolo[4,3-]pyrimidine-3-carboxamide]	2.21 nM
CCOCCn1nc(C(=O)O)c2nc(NC(C)C)nc(Nc3cc(C)ccn3)c21 [Example 54]	2.03 nM
CCOCCn1nc(C(=O)O)c2nc(N(C)CC)nc(Nc3cccc(CC)n3)c21 [Example 97]	9.74 nM
Cc1ccnc(Nc2nc(N(C)C(C)C)nc3c(C(=O)O)nn(CCOCC(F)(F)F)c23)c1 [Example 126, 5-[Isopropyl(methyl)amino]-7-[(4-methylpyridin-2-yl)amino]-1-[2-(2,2,2-trifluoroethoxy)ethyl]-1H-pyrazolo[4,3-d]pyrimidine-3-carboxylic acid]	3.05 nM
CCOCCn1nc(-c2nc(=O)o[nH]2)c2nc(N(CC)CC)nc(Nc3ccc(F)c(C)c3)c21 [Example 78]	0.24 nM
CCOCCn1nc(C(=O)O)c2nc(N(C)C)nc(Nc3cc(C)ccn3)c21 [Example 14]	8.75 nM
CCOCCn1nc(C(=O)O)c2nc(N(C)C(C)C)nc(Nc3cnccn3)c21 [Example 29]	106 nM
CCOCCn1nc(C(=O)O)c2nc(N(C)CC)nc(Nc3cccc(C)c3)c21 [Example 118, 1-(2-Ethoxyethyl)-5-[ethyl(methyl)amino]-7-[(3-methylphenyl)amino]-1H-pyrazolo[4,3-d]pyrimidine-3-carboxylic acid]	1.72 nM
CCOCCn1nc(C(=O)OC)c2nc(N(C)C)nc(Nc3cc(C)ccn3)c21 [Example 5]	0.943 nM
CCOCCn1nc(C(=O)NS(C)(=O)=O)c2nc(N(C)CC)nc(Nc3cccc(C)n3)c21 [Example 149]	14.4 nM
